Drawing on BindingDB's records for doi:10.1124/jpet.301.1.37 (National Institutes of Health, 2002), this text covers Ki for seven compounds.

Several values for one entry are separate records, joined by “and”; a condition that tells them apart may be missing. Equal entries are not always repeated.

For assay [1], the target named is T1, VIP peptides (Rattus norvegicus, UniProt P01283).
T1 sequence (P01283 whole entry): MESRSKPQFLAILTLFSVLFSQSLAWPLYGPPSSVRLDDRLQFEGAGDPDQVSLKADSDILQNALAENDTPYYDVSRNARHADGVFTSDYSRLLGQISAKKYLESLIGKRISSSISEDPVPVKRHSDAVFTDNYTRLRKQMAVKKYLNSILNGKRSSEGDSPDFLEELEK

In assay [2] the target is T2, VIP peptides (Homo sapiens, UniProt P01282).
T2 sequence (P01282 whole entry): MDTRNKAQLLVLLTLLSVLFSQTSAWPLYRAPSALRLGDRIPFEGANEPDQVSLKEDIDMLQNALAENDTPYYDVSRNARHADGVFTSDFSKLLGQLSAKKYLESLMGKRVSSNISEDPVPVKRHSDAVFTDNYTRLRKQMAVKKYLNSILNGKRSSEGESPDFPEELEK

Assay [3] addresses T3, VIP peptides (Cavia porcellus, UniProt P04566).
T3 sequence (P04566 whole entry): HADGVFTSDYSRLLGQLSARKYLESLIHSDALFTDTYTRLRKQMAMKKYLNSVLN

`CC[C@H](C)[C@H](NC(=O)[C@H](CO)NC(=O)[C@H](CC(N)=O)NC(=O)[C@H](CC(C)C)NC(=O)[C@H](Cc1ccc(O)cc1)NC(=O)[C@H](CCCCN)NC(=O)[C@H](CCCCN)NC(=O)[C@@H](NC(=O)[C@H](C)NC(=O)[C@H](CCSC)NC(=O)[C@H](CCC(N)=O)NC(=O)[C@H](CCCCN)NC(=O)[C@H](CCCN=C(N)N)NC(=O)[C@H](CC(C)C)NC(=O)[C@H](CCCN=C(N)N)NC(=O)[C@@H](NC(=O)[C@H](Cc1ccc(O)cc1)NC(=O)[C@H](CC(N)=O)NC(=O)[C@H](CC(=O)O)NC(=O)[C@H](C)NC(=O)[C@H](Cc1ccccc1)NC(=O)[C@@H](NC(=O)[C@H](C)NC(=O)[C@H](CC(=O)O)NC(=O)[C@H](CO)NC(=O)[C@@H](N)Cc1cnc[nH]1)C(C)C)[C@@H](C)O)C(C)C)C(=O)N[C@@H](CC(C)C)C(=O)N[C@@H](CC(N)=O)C(N)=O` [VIP Ala7]: the Ki on VIP peptides [1] was 16.2 nM and 107 nM and 53.7 nM; on VIP peptides [2] it was 17.8 nM and 51.3 nM and 35.7 nM; at VIP peptides [3], 66.1 nM.

`CC[C@H](C)[C@H](NC(=O)[C@H](CO)NC(=O)[C@H](CC(N)=O)NC(=O)[C@H](CC(C)C)NC(=O)[C@H](Cc1ccc(O)cc1)NC(=O)[C@H](CCCCN)NC(=O)[C@H](CCCCN)NC(=O)[C@@H](NC(=O)[C@H](C)NC(=O)[C@H](CCSC)NC(=O)[C@H](CCC(N)=O)NC(=O)[C@H](CCCCN)NC(=O)[C@H](CCCN=C(N)N)NC(=O)[C@H](CC(C)C)NC(=O)[C@@H](CCCN=C(N)N)NC(=O)[C@@H](NC(=O)[C@H](Cc1ccc(O)cc1)NC(=O)[C@H](CC(N)=O)NC(=O)[C@H](CC(=O)O)NC(=O)[C@@H](NC(=O)[C@H](Cc1ccccc1)NC(=O)[C@@H](NC(=O)[C@H](C)NC(=O)[C@H](CC(=O)O)NC(=O)[C@H](CO)NC(=O)[C@@H](N)Cc1cnc[nH]1)C(C)C)[C@@H](C)O)[C@@H](C)O)C(C)C)C(=O)N[C@@H](CC(C)C)C(=O)N[C@@H](CC(N)=O)C(N)=O` [VIP [D-Arg12]]: the inhibitory constant (Ki) was 2.8 nM and 11.7 nM and 19.1 nM on VIP peptides [1]; 2.2 nM and 18.2 nM and 14.4 nM at VIP peptides [2]; 16.9 nM at VIP peptides [3].

With `CC[C@H](C)[C@H](NC(=O)[C@H](CO)NC(=O)[C@H](CC(N)=O)NC(=O)[C@H](CC(C)C)NC(=O)[C@H](Cc1ccc(O)cc1)NC(=O)[C@H](CCCCN)NC(=O)[C@H](CCCCN)NC(=O)[C@@H](NC(=O)[C@H](C)NC(=O)[C@H](CCSC)NC(=O)[C@H](CCC(N)=O)NC(=O)[C@H](CCCCN)NC(=O)[C@@H](CCCN=C(N)N)NC(=O)[C@H](CC(C)C)NC(=O)[C@H](CCCN=C(N)N)NC(=O)[C@@H](NC(=O)[C@H](Cc1ccc(O)cc1)NC(=O)[C@H](CC(N)=O)NC(=O)[C@H](CC(=O)O)NC(=O)[C@@H](NC(=O)[C@H](Cc1ccccc1)NC(=O)[C@@H](NC(=O)[C@H](C)NC(=O)[C@H](CC(=O)O)NC(=O)[C@H](CO)NC(=O)[C@@H](N)Cc1cnc[nH]1)C(C)C)[C@@H](C)O)[C@@H](C)O)C(C)C)C(=O)N[C@@H](CC(C)C)C(=O)N[C@@H](CC(N)=O)C(N)=O` [VIP [D-Arg14]], the Ki was 10.5 nM and 22.4 nM and 27.5 nM at VIP peptides [1]; 10.7 nM and 31.6 nM and 24.6 nM at VIP peptides [2]; 36.4 nM on VIP peptides [3].

For `CC[C@H](C)[C@H](NC(=O)[C@H](CO)NC(=O)[C@H](CC(N)=O)NC(=O)[C@H](CC(C)C)NC(=O)[C@H](Cc1ccc(O)cc1)NC(=O)[C@H](CCCCN)NC(=O)[C@H](CCCCN)NC(=O)[C@@H](NC(=O)[C@H](C)NC(=O)[C@H](CCSC)NC(=O)[C@@H](CCC(N)=O)NC(=O)[C@H](CCCCN)NC(=O)[C@H](CCCN=C(N)N)NC(=O)[C@H](CC(C)C)NC(=O)[C@H](CCCN=C(N)N)NC(=O)[C@@H](NC(=O)[C@H](Cc1ccc(O)cc1)NC(=O)[C@H](CC(N)=O)NC(=O)[C@H](CC(=O)O)NC(=O)[C@@H](NC(=O)[C@H](Cc1ccccc1)NC(=O)[C@@H](NC(=O)[C@H](C)NC(=O)[C@H](CC(=O)O)NC(=O)[C@H](CO)NC(=O)[C@@H](N)Cc1cnc[nH]1)C(C)C)[C@@H](C)O)[C@@H](C)O)C(C)C)C(=O)N[C@@H](CC(C)C)C(=O)N[C@@H](CC(N)=O)C(N)=O` [VIP [D-Gln16]], the inhibition constant (Ki) is 1 nM and 5.6 nM and 9.3 nM at VIP peptides [1]; 1.1 nM and 2.9 nM and 3.5 nM on VIP peptides [2]; 11.5 nM at VIP peptides [3].

Turning to `CC[C@H](C)[C@H](NC(=O)[C@H](CO)NC(=O)[C@H](CC(N)=O)NC(=O)[C@H](CC(C)C)NC(=O)[C@H](Cc1ccc(O)cc1)NC(=O)[C@H](CCCCN)NC(=O)[C@H](CCCCN)NC(=O)[C@@H](NC(=O)[C@H](C)NC(=O)[C@H](CCSC)NC(=O)[C@H](CCC(N)=O)NC(=O)[C@H](CCCCN)NC(=O)[C@H](CCCN=C(N)N)NC(=O)[C@H](CC(C)C)NC(=O)[C@H](CCCN=C(N)N)NC(=O)[C@@H](NC(=O)[C@H](Cc1ccc(O)cc1)NC(=O)[C@H](CC(N)=O)NC(=O)[C@H](CC(=O)O)NC(=O)[C@@H](NC(=O)[C@@H](Cc1ccccc1)NC(=O)[C@@H](NC(=O)[C@H](C)NC(=O)[C@H](CC(=O)O)NC(=O)[C@H](CO)NC(=O)[C@@H](N)Cc1cnc[nH]1)C(C)C)[C@@H](C)O)[C@@H](C)O)C(C)C)C(=O)N[C@@H](CC(C)C)C(=O)N[C@@H](CC(N)=O)C(N)=O` [VIP [D-Phe6]], the Ki at VIP peptides [1] is 269 nM and 692 nM and 912 nM; at VIP peptides [2], 288 nM and 198 nM and 115 nM; at VIP peptides [3], 400 nM.

On to `CC[C@H](C)[C@H](NC(=O)[C@H](CO)NC(=O)[C@H](CC(N)=O)NC(=O)[C@H](CC(C)C)NC(=O)[C@H](Cc1ccc(O)cc1)NC(=O)[C@H](CCCCN)NC(=O)[C@H](CCCCN)NC(=O)[C@@H](NC(=O)[C@H](C)NC(=O)[C@H](CCSC)NC(=O)[C@H](CCC(N)=O)NC(=O)[C@H](CCCCN)NC(=O)[C@H](CCCN=C(N)N)NC(=O)[C@H](CC(C)C)NC(=O)[C@H](CCCN=C(N)N)NC(=O)[C@@H](NC(=O)[C@H](Cc1ccc(O)cc1)NC(=O)[C@H](CC(N)=O)NC(=O)[C@H](CC(=O)O)NC(=O)[C@@H](NC(=O)[C@H](Cc1ccccc1)NC(=O)[C@@H](NC(=O)[C@H](C)NC(=O)[C@H](CC(=O)O)NC(=O)[C@@H](CO)NC(=O)[C@@H](N)Cc1cnc[nH]1)C(C)C)[C@@H](C)O)[C@@H](C)O)C(C)C)C(=O)N[C@@H](CC(C)C)C(=O)N[C@@H](CC(N)=O)C(N)=O` [VIP [D-Ser2]], for which the Ki was 4.2 nM and 15.1 nM and 38.9 nM at VIP peptides [1]; 1.9 nM and 18.2 nM and 15.9 nM at VIP peptides [2]; 8.1 nM at VIP peptides [3].

For the compound `CC[C@H](C)[C@H](NC(=O)[C@H](CO)NC(=O)[C@H](CC(N)=O)NC(=O)[C@H](CC(C)C)NC(=O)[C@H](Cc1ccc(O)cc1)NC(=O)[C@H](CCCCN)NC(=O)[C@H](CCCCN)NC(=O)[C@@H](NC(=O)[C@H](C)NC(=O)[C@H](CCSC)NC(=O)[C@H](CCC(N)=O)NC(=O)[C@H](CCCCN)NC(=O)[C@H](CCCN=C(N)N)NC(=O)[C@H](CC(C)C)NC(=O)[C@H](CCCN=C(N)N)NC(=O)[C@@H](NC(=O)[C@H](Cc1ccc(O)cc1)NC(=O)[C@H](CC(N)=O)NC(=O)[C@H](CC(=O)O)NC(=O)[C@H](NC(=O)[C@H](Cc1ccccc1)NC(=O)[C@@H](NC(=O)[C@H](C)NC(=O)[C@H](CC(=O)O)NC(=O)[C@H](CO)NC(=O)[C@@H](N)Cc1cnc[nH]1)C(C)C)[C@H](C)O)[C@@H](C)O)C(C)C)C(=O)N[C@@H](CC(C)C)C(=O)N[C@@H](CC(N)=O)C(N)=O` [VIP [D-Thr7]], the Ki at VIP peptides [1] was 87.1 nM and 324 nM and 437 nM; on VIP peptides [2] it was 162 nM and 288 nM and 214 nM; on VIP peptides [3], 200 nM.
